Broadly, the IC50 is the point on the concentration scale where inhibition reaches its midpoint.

Sequence of ERK2 kinase (P28482 whole entry): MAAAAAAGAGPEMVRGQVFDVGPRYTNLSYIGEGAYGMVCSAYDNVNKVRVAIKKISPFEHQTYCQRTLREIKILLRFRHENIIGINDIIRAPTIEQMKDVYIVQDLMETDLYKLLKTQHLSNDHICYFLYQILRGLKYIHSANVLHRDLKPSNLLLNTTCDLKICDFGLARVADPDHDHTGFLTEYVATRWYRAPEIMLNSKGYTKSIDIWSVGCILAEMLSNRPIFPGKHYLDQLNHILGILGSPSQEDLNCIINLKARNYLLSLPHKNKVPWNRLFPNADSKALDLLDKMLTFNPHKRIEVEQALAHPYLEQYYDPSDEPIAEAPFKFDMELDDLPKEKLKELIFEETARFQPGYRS

One experiment deals with ERK2 kinase (Homo sapiens (Human), UniProt P28482). Put plainly: In vitro enzyme activity assay, ERK2 kinase (Z'-LYTE). The class given is biochemical. Particulars: class symbols; read-out: ERK2 IC50. How it is done:
Half inhibitory activity of the compounds of the invention against ERK2 kinase (IC50 value) was determined in this Example.
• Enzyme: extracellular signal-regulated kinase ERK2 kinase (PV3595, Invitrogen) • Kit: Z′-LYTE® Protein Kinase Assay Kit-Ser/Thr 3 Peptide (PV3176, Invitrogen) • Kit components: The substrate Z′-LYTE™ Ser/Thr 3 Peptide (PV3200) • The phosphorylation substrate Z′-LYTE™ Ser/Thr 3 Phospho-peptide (PV3215) • 5× kinase buffer: 250 mM HEPES (pH 7.5), 50 mM MgCl2, • 5 mM EGTA, 0.05% BRIJ-35 (PV3189, Invitrogen) • ATP (PV3227, Invitrogen) • Development Reagent A (PV3295, Invitrogen) • Development Buffer (P3127, Invitrogen) • Stop Reagent (P3094, Invitrogen) • Microplate reader: The multil-mode microplate reader PerkinElmer EnVision® • Microplate: black shallow 384-well microplate (6008269, PerkinElmer) (2). Assay Protocol:
The substrate Z′-LYTE™ Ser/Thr 3 Peptide, the phosphorylation substrate Z′-LYTE™ Ser/Thr 3 Phospho-peptide, 1× kinase buffer (5× kinase buffer was diluted with ultra pure water by five times), ATP, Development Reagent A, Development Buffer, Stop Reagent were balanced to room temperature for use. The screening concentrations for detecting the effect of the compounds of the invention on the ERK kinase activity were seven 3-fold serial dilutions starting from 1 μM (from 0.2 μM for the positive drug control) using 4% DMSO as co-solvent. 5 μL enzyme system (50 mM HEPES pH 7.5, 1 mM EGTA, 10 mM MgCl2, 0.01% Brij-35, 4 uM substrate, 0.8 ng/μL enzyme), 2.5 μL Compound, 2.5 μL 400 μM ATP were added into 384 well microplate, followed by incubation at room temperature for 60 min in the dark. After the reaction was completed, 5 μl the developing agent (Development Reagent A) diluted with the developing buffer (Development Buffer) was added to all reaction wells, followed by incubation at the room temperature for 60 min in the dark. 5 μL the terminating agent was added to each well to terminate the reaction. The fluorescence was determined using the multil-mode microplate reader PerkinElmer EnVision® (excitation wavelength 400 nm, emission wavelength 460 nm and 528 nm).
The inhibition rate of each well was calculated from 100% phosphorylation substrate well and 0% phosphorylation substrate well using the data analysis method below: phosphorylation %=1−{(emission rate×F100%−C100%)/[C0%−C100%+emission rate×(F100%−F0%)]}×100 inhibition %=100×(1−phosphorylation % of the test compound well/phosphorylation % of the 0% inhibition control) • wherein: • emission rate=fluorescence emission of the sample at 445 nm/fluorescence emission of the sample at 520 nm • F100%=the average fluorescence emission of the control well of 100% phosphorylation substrate at 520 nm • F0%=the average fluorescence emission of the control well of 0% phosphorylation substrate at 520 nm • C100%=the average fluorescence emission of the control well of 100% phosphorylation substrate at 445 nm • C0%=the average fluorescence emission of the control well of 0% phosphorylation substrate at 445 nm
Tests were carried out in duplicate. IC50 values were calculated from the inhibition of the kinase by the test compounds at a range of different concentrations.
With `Cc1ncccc1CC(=O)N1CCc2cc(-c3ccnc(Nc4ccnn4C)c3)cc(F)c21` [Example P45, 1-(7-fluoro-5-(2-((1-methyl-1H-pyrazol-5-yl)amino)pyridin-4-yl)indolin-1-yl)-2-(2-methylpyridin-3-yl)ethan-1-one], the IC50 was no more than 10 nM.

Regarding `CC(CCO)Nc1nccc(-c2cc(F)c3c(c2)CCN3C(=O)Cc2cccnc2Cl)n1` (centres unmarked) [Example P7, 2-(2-chloropyridin-3-yl)-1-(7-fluoro-5-(2-((4-hydroxylbutan-2-yl)amino)pyrimidin-4-yl)indolin-1-yl)ethan-1-one], the IC50 lay within 10 to 100 nM. Still for that read-out and setting: the figure for `Cn1nccc1Nc1nccc(-c2cc(Cl)c3c(c2)CCN3C(=O)Cc2cccnc2Cl)n1` [Example P11, 1-(7-chloro-5-(2-((1-methyl-1H-pyrazol-5-yl)amino)pyrimidin-4-yl)indolin-1-yl)-2-(2-chloropyridin-3-yl)ethan-1-one] is 10 to 100 nM. Still for that read-out and setting: the figure for `Cn1nccc1Nc1nccc(-c2cc(F)c3c(c2)CCN3C(=O)Cc2ccccc2C#N)n1` [Example P30, 2-(2-(7-fluoro-5-(2-((1-methyl-1H-pyrazol-5-yl)amino)pyrimidin-4-yl)indolin-1-yl)-2-oxoethyl)benzonitrile] is 10 to 100 nM; for `Cc1cc(-c2ccnc(Nc3ccnn3C)n2)cc2c1N(C(=O)Cc1cccnc1Cl)CC2` [Example P13, 2-(2-chloropyridin-3-yl)-1-(7-methyl-5-(2-((1-methyl-1H-pyrazol-5-yl)amino)pyrimidin-4-yl)indolin-1-yl)ethan-1-one] it is 100 to 1000 nM. Take `O=C(Cc1cccnc1Cl)N1CCc2cc(-c3ccnc(NCCO)n3)cc(F)c21` [Example P2, 2-(2-chloropyridin-3-yl)-1-(7-fluoro-5-(2-((2-hydroxylethyl)amino)pyrimidin-4-yl)indolin-1-yl)ethan-1-one]: the IC50 lay in the range of 10 to 100 nM.

Consider `Cn1nccc1Nc1cc(-c2cc(F)c3c(c2)CCN3C(=O)Cc2cccnc2C2CCOCC2)ccn1` [Example P57, 1-(7-fluoro-5-(2-((1-methyl-1H-pyrazol-5-yl)amino)pyridin-4-yl)indolin-1-yl)-2-(2-(tetrahydro-2H-pyran-4-yl)pyridin-3-yl)ethan-1-one], for which the IC50 lay in the range of 100 to 1000 nM. The same measure, in the same setting: the figure for `Cn1nccc1Nc1nccc(-c2cc(F)c3c(c2)CCN3C(=O)Cc2c(F)ccnc2Cl)n1` [Example P33, 2-(2-chloro-4-fluoropyridin-3-yl)-1-(7-fluoro-5-(2-((1-methyl-1H-pyrazol-5-yl)amino)pyrimidin-4-yl)indolin-1-yl)ethan-1-one] is 10 to 100 nM.

As to `Cn1nc(CO)cc1Nc1cc(-c2cc(F)c3c(c2)CCN3C(=O)Cc2cccnc2Cl)ccn1` [Example P35, 2-(2-chloropyridin-3-yl)-1-(7-fluoro-5-(2-((3-(hydroxylmethyl)-1-methyl-1H-pyrazol-5-yl)amino)pyridin-4-yl)indolin-1-yl)ethan-1-one], the IC50 was 10 to 100 nM. The same measure, in the same setting: in the case of `Cn1nccc1Nc1cc(-c2cc(F)c3c(c2)CCN3C(=O)Cc2cccnc2Cl)ncn1` [Example P44, 2-(2-chloropyridin-3-yl)-1-(7-fluoro-5-(6-((1-methyl-1H-pyrazol-5-yl)amino)pyrimidin-4-yl)indolin-1-yl)ethan-1-one] it was 10 to 100 nM; in that of `CC(CO)Nc1cc(-c2cc(F)c3c(c2)CCN3C(=O)Cc2cccnc2Cl)ccn1` (centres unmarked) [Example P8, 2-(2-chloropyridin-3-yl)-1-(7-fluoro-5-(2-((1-hydroxylprop-2-yl)amino)pyridin-4-yl)indolin-1-yl)ethan-1-one], 100 to 1000 nM; in that of `Cn1nccc1Nc1cc(-c2cc(F)c3c(c2)CCN3C(=O)Cc2ccccc2Cl)ccn1` [Example P31, 2-(2-chlorophenyl)-1-(7-fluoro-5-(2-((1-methyl-1H-pyrazol-5-yl)amino)pyridin-4-yl)indolin-1-yl)ethan-1-one], no more than 10 nM. On to `Cn1nccc1Nc1cc(-c2cc(Cl)c3c(c2)CCN3C(=O)Cc2cccnc2Cl)ccn1` [Example P14, 1-(7-chloro-5-(2-((1-methyl-1H-pyrazol-5-yl)amino)pyridin-4-yl)indolin-1-yl)-2-(2-chloropyridin-3-yl)ethan-1-one], for which the concentration for half-maximal inhibition (IC50) is 10 to 100 nM. Same read-out and setting: the figure for `COCC1Cc2cc(-c3nc(Nc4ccnn4C)ncc3C)cc(F)c2N1C(=O)Cc1cccnc1Cl` (centres unmarked) [Example P49, 2-(2-chloropyridin-3-yl)-1-(7-fluoro-2-(methoxymethyl)-5-(5-methyl-2-((1-methyl-1H-pyrazol-5-yl)amino)pyrimidin-4-yl)indolin-1-yl)ethan-1-one] is no more than 10 nM; for `Cc1cnc(Nc2ccnn2C)nc1-c1cc(F)c2c(c1)CCN2C(=O)Cc1cccnc1Cl` [Example P47, 2-(2-chloropyridin-3-yl)-1-(7-fluoro-5-(5-methyl-2-((1-methyl-1H-pyrazol-5-yl)amino)pyrimidin-4-yl)indolin-1-yl)ethan-1-one] it is no more than 10 nM. Same read-out and setting: in the case of `Cn1nccc1Nc1nccc(-c2cc(F)c3c(c2)CCN3C(=O)Cc2ccc(F)cc2F)n1` [Example P12, 2-(2,4-difluorophenyl)-1-(7-fluoro-5-(2-((1-methyl-1H-pyrazol-5-yl)amino)pyrimidin-4-yl)indolin-1-yl)ethan-1-one] it was 10 to 100 nM; in that of `O=C(Cc1cccnc1Cl)N1CCc2cc(-c3ccnc(NC4CCOCC4)n3)cc(F)c21` [Example P5, 2-(2-chloropyridin-3-yl)-1-(7-fluoro-5-(2-((tetrahydro-2H-pyran-4-yl)amino)pyrimidin-4-yl)indolin-1-yl)ethan-1-one], no more than 10 nM. Same read-out and setting: in the case of `Cn1nccc1Nc1cc(-c2cc(F)c3c(c2)CCN3C(=O)Cc2cccc(Cl)n2)ccn1` [Example P29, 2-(6-chloropyridin-2-yl)-1-(7-fluoro-5-(2-((1-methyl-1H-pyrazol-5-yl)amino)pyridin-4-yl)indolin-1-yl)ethan-1-one] it was 10 to 100 nM; in that of `O=C(Cc1cccnc1Cl)N1CCc2cc(-c3ccnc(NC4CC(O)C4)c3)cc(F)c21` (racemic) [Example P53, 2-(2-chloropyridin-3-yl)-1-(7-fluoro-5-(2-((3-hydroxylcyclobutyl)amino)pyridin-4-yl)indolin-1-yl)ethan-1-one], 100 to 1000 nM. For `Cn1nccc1Nc1cc(-c2cc(F)c3c(c2)CCN3C(=O)Cc2ncccc2Cl)ccn1` [Example P28, 2-(3-chloropyridin-2-yl)-1-(7-fluoro-5-(2-((1-methyl-1H-pyrazol-5-yl)amino)pyridin-4-yl)indolin-1-yl)ethan-1-one], the IC50 lay in the range of 10 to 100 nM. Same read-out and setting: in the case of `[2H]C([2H])([2H])n1nccc1Nc1cc(-c2cc(F)c3c(c2)CCN3C(=O)Cc2cccnc2Cl)ccn1` [Example P46, 2-(2-chloropyridin-3-yl)-1-(7-fluoro-5-(2-((1-(deuteriomethyl)-1H-pyrazol-5-yl)amino)pyridin-4-yl)indolin-1-yl)ethan-1-one] it was no more than 10 nM; in that of `Cn1nccc1Nc1nccc(-c2cc(F)c3c(c2F)CCN3C(=O)Cc2cccnc2Cl)n1` [Example P50, 2-(2-chloropyridin-3-yl)-1-(4,7-difluoro-5-(2-((1-methyl-1H-pyrazol-5-yl)amino)pyrimidin-4-yl)indolin-1-yl)ethan-1-one], 100 to 1000 nM.

The same experiment, now with this note: read-out: IC50 against ERK2 kinase.
Take `C[C@H]1Cc2cc(-c3ccnc(Nc4ccnn4C)c3)cc(F)c2N1C(=O)Cc1cccnc1Cl` [Example P42]: the IC50 came to 2.7 nM.

The values above are taken from patent US11465984B2, “Compound having ERK kinase inhibitory activity and use thereof” (SHANGHAI HAIHE PHARMACEUTICAL CO., LTD., priority 2017, dated 2022).
